Measurements published in patent publication US20160195544A1, “METHOD OF DIAGNOSING SEPSIS OR SEPSIS RISK” (UNIVERSITY OF ROCHESTER, priority 2013, published 2016).

Key:
[1] = system: neutrophils isolated from healthy donors; test: In vitro stimulation of neutrophils from healthy donors, VLA-3 expression by RT-PCR and flow cytometry; format: cell-based; details: human neutrophils, 1 and 3 hours of stimulation, PMA 20 ng/ml, LPS 100 μg/ml
Text: Blood was collected from healthy volunteers via antecubital vein puncture in heparin containing vacutainers. Granulocytes and erythrocytes were separated from whole blood by centrifugation through 1-step Polymorphs (Fresenius Kabi Norge AS) density gradient. Remaining erythrocytes were removed by hypotonic lysis, yielding a neutrophil purity of >98%. The Human Research Studies Review Board of the University of Rochester approved this study, and informed consent was obtained in accordance with the Declaration of Helsinki To measure integrin expression, neutrophils were stimulated with PMA (20 ng/ml), TNF-α (20 ng/ml), LPS (100 μg/ml) or fMLP (1 μM for 1 hour or 3 hours in L15 (Leibovitz) medium with glucose at 37° C. temperatures.
Total RNA was prepared from human neutrophils or sorted mouse bone marrow granulocytes using RNeasy Mini Kit (QIAGEN, Valencia, Calif.). Similarly, RNA was reverse transcribed by using murine leukemia virus reverse transcriptase (Life Technologies, Bethesda, Md.), with oligo(dT) as the primer (Invitrogen, San Diego, Calif.). All cDNAs were divided into aliquots and stored at −20° C. until further use. Quantitation of integrins α3 and α2 on human neutrophils and IL-6, IL-β and TNFα mRNA were performed using TaqMan® Gene Expression Assays (Applied Biosystems). […] RQ values were analyzed using software.

[2] = molecular target: T1, VLA-3 (Mus musculus, UniProt P09055+Q62470); test: Multiphoton intravital microscopy (MP-IVM) of fMLP-superfused cremaster vessels of LysM-GFP mice; format: in vivo; details: fMLP 1 μM superfusion, 88 μg IV
T1 construct: endogenous in cells; host or cells: neutrophils and other tissues of live mice (C57BL/6; LysM-GFP bone marrow chimeras)
Text: For MP-IVM of Lysozyme M (LysM)-GFP mice (Faust et al., “Insertion of Enhanced Green Fluorescent Protein Into the Lysozyme Gene Creates Mice With Green Fluorescent Granulocytes and Macrophages,” Blood 96:719-726 (2000), the disclosure of which is incorporated herein by reference in its entirety) in which granulocytes and monocytes express GFP were used. In order to accurately track morphological changes and migration velocities of individual extravasating leukocytes, mixed bone marrow chimera mice were generated using 80% WT and 20% LysM-GFP bone marrow into irradiated WT recipient mice to reduce the density of fluorescent cells during imaging. 8 weeks after bone marrow transfer to the irradiated recipient mice, the mice were then used for in vivo imaging. Cremaster muscle was prepared for imaging as previously described (Sumagin et al., “Leukocyte-Endothelial Cell Interactions are Linked to Vascular Permeability Via ICAM-1-Mediated Signaling,” Am. J. Physiol. Heart Circ. Physiol. 295:H969-H977 (2008), the disclosure of which is incorporated herein by reference in its entirety). Briefly, mice were anesthetized with pentobarbital sodium (65 mg/kg IP) and maintained on isoflorane inhalation anesthesia. The body temperature was maintained by placing the animal on a warming pad set. […] Imaging data were analyzed with velocity software (PerkinElmer).

[3] = molecular target: T1, VLA-3; test: CLP (cecal ligation and puncture) sepsis mouse model, VLA-3 blocking with peptide; format: in vivo
Procedure: (§1) Endotoxemia and CLP were performed according to Animal Resource Protocol approved by the Committee at University of Rochester. For endotoxemia assay, 8-12-wk-old C57BL/6 (Harlan) male mice were weighed and LPS (E. coli […], Sigma-Aldrich) was administered by intra peritoneal (IP) injection to achieve LD90 mortality rate. CLP survival surgery was performed under isofluorane inhalation anesthesia. Caecum was ligated and punctured through and through with a 21-gauge needle. All the mice were resuscitated with 1 ml lactated Ringers injected subcutaneously. For VLA-3 blocking experiments, LXY2 (88 μg) (CysD-AspD-Gly-Tyr(3-NO2)-Gly-4Hyp-Asn-CysD) where the amino acids may be D amino acids, or control (88 μg) (Peptide International) peptides were administered intravenously (IV) at 2 hours and by IP at 8 hours, 32 hours following CLP or endotoxemia. Survival was monitored for 120 hours.
For flow cytometry measurement of the integrin expression on neutrophil, bone marrow (BM), peritoneal Lavage (PL), peripheral blood and lungs were isolated from naïve and septic mice at the indicated time points and subsequently single-cell suspensions were prepared. RBC lysis was performed using ACK lysing buffer (Invitrogen, San Diego, Calif.). The Fc receptors were blocked with unconjugated anti-CD16/32 (eBioscience, San Diego, Calif.) for 30 minutes. Samples were stained with Alexafluor 488 labeled anti-Gr1 (Invitrogen). Allophycocyanin (APC) labeled Ly6G (BD Biosciences), PerCp-Cy5.5 labeled anti-CD11b (eBioscience, San Diego, Calif.,), fluorescein isothiocyanate (FITC) anti-F4/80 (eBioscience, San Diego, Calif., USA), purified goat anti-mouse integrin α3/CD49c (R&D Systems), PE-anti-mouse integrin α2/CD49b, α5/CD49e, αv/CD51, APC-anti-mouse integrin α6/CD49f and PE conjugated donkey anti-goat IgG (Santa Cruz) antibodies were used. All samples were fixed with 3.7% formaldehyde and collected on FACS Calliber flow cytometer (BD Biosciences, San Diego, Calif.). Data were analyzed using Flow Jo software.
Peritoneal lavage was collected after injection of 10 ml PBS into the peritoneum. […] Colony count for each group was expressed as CFU/ml.
Serum from individual mice was collected at the indicated time points and the level of IL-6 was determined by standard sandwich ELISA protocol. […] The color reaction was developed using TMB (Thermo Scientific, Rockford, Ill.) and measured with an ELISA reader (Kinetic microplate reader; Molecular Devices) at 450 nm.
All values are expressed as the mean±SEM. Data from human samples were analyzed by one-way ANOVA. Data from murine experiments were analyzed by paired non-parametric t-test (Wilcoxon test). Survival curves were analyzed by the Kaplan-Meyer log-rank test. […]

[4] = molecular target: T1, VLA-3; test: Transmission electron microscopy of fMLP-superfused cremaster microvasculature; format: in vivo; details: 88 μg IV
Procedure: Leukocyte extravasation was first observed on the fMLP-stimulated cremaster venules of LysM-GFP mice by MP-IVM. LXY2 (88 μg) peptide was injected IV when extravasating cells were noticed. The cremaster was then immediately dissected from the body post-euthanization and fixed with 2.5% glutaraldehyde. The tissue was further processed for transmission electron microscopy at the Electron Microscope Research Core at the University of Rochester for transmission electron microscopy.

[5] = molecular target: T1, VLA-3; test: LPS-induced endotoxemia mouse model, VLA-3 blocking with peptide; format: in vivo; details: endotoxemia mice, 8 hours, 88 μg peptide, vs control peptide
Procedure: as §1
For flow cytometry measurement of the integrin expression on neutrophil, bone marrow (BM), peritoneal Lavage (PL), peripheral blood and lungs were isolated from naïve and septic mice at the indicated time points and subsequently single-cell suspensions were prepared. RBC lysis was performed using ACK lysing buffer (Invitrogen, San Diego, Calif.). The Fc receptors were blocked with unconjugated anti-CD16/32 (eBioscience, San Diego, Calif.) for 30 minutes. […] Data were analyzed using Flow Jo software.

T1 sequence (Q62470 33-1053): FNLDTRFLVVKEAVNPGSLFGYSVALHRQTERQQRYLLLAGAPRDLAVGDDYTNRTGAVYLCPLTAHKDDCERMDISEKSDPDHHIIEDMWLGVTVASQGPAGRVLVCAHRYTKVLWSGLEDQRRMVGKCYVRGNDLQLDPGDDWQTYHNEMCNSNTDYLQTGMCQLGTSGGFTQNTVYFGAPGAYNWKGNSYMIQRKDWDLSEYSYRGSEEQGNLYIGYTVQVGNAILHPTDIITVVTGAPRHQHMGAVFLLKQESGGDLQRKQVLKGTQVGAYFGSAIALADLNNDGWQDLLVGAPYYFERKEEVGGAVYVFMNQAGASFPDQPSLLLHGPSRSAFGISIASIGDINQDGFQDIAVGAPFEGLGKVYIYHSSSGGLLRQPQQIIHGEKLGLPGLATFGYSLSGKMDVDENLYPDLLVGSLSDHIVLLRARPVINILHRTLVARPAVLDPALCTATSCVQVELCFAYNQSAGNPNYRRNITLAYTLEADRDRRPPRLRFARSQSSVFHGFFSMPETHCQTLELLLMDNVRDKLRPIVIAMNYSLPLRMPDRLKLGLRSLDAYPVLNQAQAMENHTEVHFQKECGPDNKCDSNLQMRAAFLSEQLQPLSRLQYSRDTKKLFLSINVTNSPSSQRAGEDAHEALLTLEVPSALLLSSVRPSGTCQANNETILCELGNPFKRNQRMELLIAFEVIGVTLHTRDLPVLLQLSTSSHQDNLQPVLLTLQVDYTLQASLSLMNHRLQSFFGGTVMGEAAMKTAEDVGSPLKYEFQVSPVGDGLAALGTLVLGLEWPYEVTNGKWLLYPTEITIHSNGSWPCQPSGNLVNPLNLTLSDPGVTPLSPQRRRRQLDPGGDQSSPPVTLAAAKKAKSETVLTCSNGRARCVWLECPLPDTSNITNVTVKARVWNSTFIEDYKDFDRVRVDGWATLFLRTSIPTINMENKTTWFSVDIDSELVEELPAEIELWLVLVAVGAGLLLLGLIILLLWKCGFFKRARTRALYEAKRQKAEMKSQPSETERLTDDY
T1 sequence (P09055 21-798): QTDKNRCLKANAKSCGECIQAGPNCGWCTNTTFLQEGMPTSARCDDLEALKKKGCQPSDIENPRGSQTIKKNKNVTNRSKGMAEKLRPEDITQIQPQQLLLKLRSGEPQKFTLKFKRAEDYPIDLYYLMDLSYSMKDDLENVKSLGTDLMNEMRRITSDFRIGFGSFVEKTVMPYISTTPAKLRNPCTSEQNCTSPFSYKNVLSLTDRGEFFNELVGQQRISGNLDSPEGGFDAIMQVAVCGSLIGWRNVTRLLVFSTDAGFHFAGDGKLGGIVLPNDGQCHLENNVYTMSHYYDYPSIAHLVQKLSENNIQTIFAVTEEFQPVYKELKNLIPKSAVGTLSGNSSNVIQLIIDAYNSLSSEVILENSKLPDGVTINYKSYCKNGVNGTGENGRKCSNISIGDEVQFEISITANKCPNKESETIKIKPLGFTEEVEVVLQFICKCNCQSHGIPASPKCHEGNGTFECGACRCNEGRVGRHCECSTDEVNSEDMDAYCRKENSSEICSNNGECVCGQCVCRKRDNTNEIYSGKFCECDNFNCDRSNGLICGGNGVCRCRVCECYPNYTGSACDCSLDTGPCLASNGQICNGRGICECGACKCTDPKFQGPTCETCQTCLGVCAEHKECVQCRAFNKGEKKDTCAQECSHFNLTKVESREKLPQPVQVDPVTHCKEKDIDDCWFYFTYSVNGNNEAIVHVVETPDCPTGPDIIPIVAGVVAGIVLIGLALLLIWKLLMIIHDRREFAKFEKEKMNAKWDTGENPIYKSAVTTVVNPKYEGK

## CCCCCCCCCCCCCC(=O)O[C@@H]1[C@@H](C)[C@@]2(O)[C@@H](C=C(CO)C[C@]3(O)C(=O)C(C)=C[C@@H]23)[C@@H]2C(C)(C)[C@]12OC(C)=O [PMA]
[1]; RT-PCR
  mRNA level of VLA-3: significant increases
[1]; flow cytometry
  protein (cell-surface) level of VLA-3: significant increases

## CysD-AspD-Gly-Tyr(3-NO2)-Gly-4Hyp-Asn-CysD [LXY2]
[2]
  neutrophil extravasation in response to fMLP: dramatically reduced
[3]; CLP and endotoxemia mice, 88 μg IV at 2 hours and IP at 8 and 32 hours, survival monitored 120 hours, Kaplan-Meyer log-rank
  survival / sepsis lethality: protected mice from sepsis lethality
[3]; mice with CLP-induced sepsis, 8 hours after CLP, 88 μg/dose IV, vs control peptide
  number of tissue-infiltrating neutrophils (PL and lungs): significantly reduced
[3]; septic mice, PL streaked on TSA blood agar, colonies counted after 24 hours
  local bacterial clearance (bacterial load in PL): without altering
[3]; septic mice, sandwich ELISA
  levels of the IL-6 cytokine in the serum: reduced
[4]
  location of neutrophils in the vessel wall (ultrastructural analysis): majority of neutrophils accumulated within the space between the endothelium and the basement membrane
[5]
  number of tissue-infiltrating neutrophils (PL): significantly reduced
